# From patent publication US20260198526A1, “METHOD FOR PROMOTING DIFFERENTIATION OF ANIMAL CELL” (Ajinomoto Co., Inc., priority 2023, published 2026)
# System: chicken muscle stem cells
# Assay: Muscle differentiation of chicken muscle stem cells in serum-free differentiation medium (MyHC immunocytochemistry, Fusion Index)
# Format: cell-based
# Conditions: additive concentrations of Table 1, second day, FIG. 2
# Procedure: Muscle tissue was collected from edible bovine shank meat, and CD56-positive cells were isolated using a Magnetic-Activated Cell Sorting (MACS) system to obtain bovine muscle stem cells. Separately, muscle stem cells were isolated from edible chicken breast meat.
# Then, on the second day, the expression of myosin heavy chain (MyHC) was measured by immunocytochemistry. The cells were fixed with 4% paraformaldehyde (Nacalai Tesque, Cat No. 09154-85) for 15 minutes. After washing twice with Dulbecco's phosphate-buffered saline (without Ca, Mg) (Nacalai Tesque, Cat No. 14249-24), the cells were immersed in Dulbecco's phosphate-buffered saline (without Ca, Mg) containing 0.1% Triton X-100 (Sigma, Cat No. T9284) for 10 minutes. Then, the solution was replaced with a blocking buffer and left to stand for 1 hour. As the blocking buffer, a solution was used in which Dulbecco's phosphate-buffered saline (without Ca, Mg) was supplemented with 5% horse serum and 0.1% Triton X-100. […] MyHC-positive cells were detected with a fluorescence microscope ECLIPSE Ti2-E (Nikon), and the Fusion Index (=Number of MyHC-positive nuclei/Total number of nuclei×100(%)) was calculated. […]
# Then, on the second day, the expression of myosin heavy chain (MyHC) was measured by the same method as in (1-2).
smiles,measurement,value
OCc1ccccc1O[C@@H]1O[C@H](CO)[C@@H](O)[C@H](O)[C@H]1O [Salicin],"muscle differentiation (MyHC expression, Fusion Index)",promoted the muscle differentiation of chicken cells
